# Assay results taken from patent publication US20220071891A1, “Extract of Chlamydomonas Acidophila, Method for Preparing Same and Cosmetic Compositions and Dermatological Compositions Comprising Same” (Laboratoires Expanscience, priority 2018, published 2022).
# Assays:
# human basophils = assay: Basophil activation test (Flow CAST), fMLP-stimulated; type: cell-based; settings: whole blood, 1 μM fMLP
# Protocol: (§1) The potential anti-allergic effects of the Chlamydomonas acidophila extract were investigated on: • Gene expression of pro-inflammatory chemokines in normal human epidermal keratinocytes (NHEK) stimulated by a mixture of Th2 cytokines (IL-4+IL-13+IL-22+TNF-α) mimicking a late-phase “atopic dermatitis” type phenotype (chronic inflammation). • Activation of human basophils induced by fMLP. This activation was measured using a specific kit and flow cytometry analysis by quantifying a specific marker of activated basophil cells (CD63) in the total population of basophils identified by expression of the CCR3 marker. In parallel, activation with the anti-FCεRI antibody was performed as a positive control.
# The basophil activation test (BAT) was performed using the Flow CAST® kit (BUHLMANN, item code FKCCR).
# Whole blood was preincubated for 15 minutes in the presence of the CAP extract at 0.033% and 0.1% dry matter (DM) or the references (SB202190 at 30 μM; or cromoglycate at 10 mM).
# The stimulant, 1 μM fMLP, was then added and the blood was incubated for an additional 15 minutes in the presence of the labeling buffer containing a mixture of monoclonal antibodies (anti-CD63-FITC and anti-CCR3-PE).
# Flow cytometry analysis was then performed to count the total population of basophils (CCR3+) and activated basophils (CCR3+/CD63+).
# [1] = system: normal human keratinocytes stimulated with PMA; assay: TNF-alpha assay in keratinocytes stimulated with PMA; type: cell-based; settings: 0.1 μM, 24 h pretreatment; for TNF-alpha, change vs PMA: then 10 μg/ml PMA; for TNF-alpha, mean: then 10 μg/ml PMA overnight
# Protocol: (§2) The anti-inflammatory activity of the Chlamydomonas acidophila extract according to the invention was evaluated on a model of inflammation induced on keratinocytes by PMA (phorbol 12-myristate 13-acetate) treatment. The release of the cytokines TNFα and prostaglandin E2 (PGE2) was analyzed.
# (§3) Normal human epidermal keratinocytes were pretreated for 24 h with the Chlamydomonas acidophila (CAP) extract according to Example 1, at concentrations comprised between 0.0001% and 0.05% dry matter, or with the anti-inflammatory reference molecules dexamethasone at 0.1 μM or indomethacin at 0.1 μM (the latter two references serving as anti-inflammatory references for cytokines and prostaglandins, respectively).
# (§4) Inflammation was then induced by addition of PMA at 10 μg/mL overnight.
# (§5) A TNFα and PGE2 assay was then performed in the cell culture supernatants.
# (§6) The significance of the results was checked by a one-way ANOVA followed by a Tuckey test (GraphPad Prism software version 5.02, GraphPad Software, San Diego Calif. USA).
# [2] = system: normal human keratinocytes stimulated with PMA; assay: PGE2 assay in keratinocytes stimulated with PMA; type: cell-based; settings: 0.1 μM, 24 h pretreatment; for PGE2, change vs PMA: then 10 μg/ml PMA; for PGE2, mean: then 10 μg/ml PMA overnight
# Protocol: as §2, §3, §4, §5, §6
# [3] = system: cadmium-stimulated normal human keratinocytes; assay: PGE2 assay in cadmium-stimulated keratinocytes; type: cell-based; settings: 0.1 μM, 24 h pretreatment, then 100 μM CdCl2 48 h
# Protocol: Normal human epidermal keratinocytes were pretreated for 24 hours with the CAP extract at 0.001% and 0.01% dry matter or with the anti-inflammatory reference molecule indomethacin at […]. The keratinocytes were then treated for 48 hours with cadmium: CdCl2 at 100 μM. At the end of the incubation, the amount of PGE2 produced by the cells was assessed by ELISA in the supernatants. The concentration of PGE2 assayed was normalized to the amount of total intracellular protein assessed by BC Assay.
# [4] = system: keratinocytes treated with hydrogen peroxide (H2O2); assay: ROS production (DCFH-DA) in keratinocytes treated with H2O2; type: cell-based, human; settings: 24 h preincubation, 100 μM H2O2 20 minutes
# Source text: The evaluation of the antioxidant effect of the active agent is done through the incorporation of DCFH-DA (2′,7′-dichlorofluorescin diacetate) into cultured keratinocytes. This molecule is a non-fluorescent marker in the non-oxidized state. Under oxidizing conditions (here H2O2 stress), DCFH-DA will be degraded to DCF, a molecule that will emit fluorescence. The fluorescence measured will be proportional to the amount of reactive oxygen species produced by the cell in the presence of H2O2 and/or the extract. Normal human epidermal keratinocytes were preincubated for 24 hours in the presence of the CAP extract at 0.0001% dry matter, quercetin at 10 μM or vitamin C at 500 μM (the latter two molecules serving as antioxidant reference). The cells are then treated for 1 h in the presence of 0.5 mM DCFH-DA. Oxidation is induced by adding 100 μM H2O2 for 20 minutes. A second treatment with the tested products is performed simultaneously with H2O2 stress (at the same concentrations as the pretreatment). Finally, a measurement of the fluorescence density (DFU) corresponding to the amount of ROS is performed using a microplate reader. The significance of the results was checked by a one-way ANOVA followed by a Tuckey test (GraphPad Prism software version 5.02, GraphPad Software, San Diego Calif. USA).
# [5] = system: NiSO4-stimulated normal human keratinocytes; assay: IL8 assay in NiSO4-stimulated keratinocytes; type: cell-based; settings: 1 μM, 24 h pretreatment, then 10 μM NiSO4 24 h
# Protocol: Normal human epidermal keratinocytes were pretreated for 24 hours with CAP extract at 0.01% and 0.05% dry matter or with the anti-inflammatory reference molecule dexamethasone at 1 μM. The keratinocytes were then treated for 24 hours with nickel: NiSO4 at 10 μM. At the end of the incubation, the amount of IL8 produced by the cells was assessed by ELISA in the supernatants.
# The concentration of IL8 assayed was normalized to the amount of total intracellular protein assessed by BC Assay.
# Significance of results was statistically analyzed by a Student's t-test.
# [6] = system: epidermal keratinocytes subjected to Th2 stress; assay: qRT-PCR gene expression in keratinocytes subjected to Th2 stress; type: cell-based, human; settings: 10 μM, 24 h preincubation, Th2 cytokine cocktail 24 h; control = 100
# Protocol: as §1
# Normal human epidermal keratinocytes were preincubated for 24 hours in the presence of the CAP extract at 0.01% dry matter (DM) or reference JAK inhibitor I at 10 μM. After preincubation, the cells were retreated with the CAP extract or reference and then the cells were stimulated with a Th2 cytokine cocktail (IL4+1L13+1L22+TNFα at 10 ng/ml) for 24 hours.
# At the end of incubation, gene expression of markers of interest was assessed by qRT-PCR.
smiles,measurement,setting,value
O=C(O)c1cc(=O)c2c(OCC(O)COc3cccc4oc(C(=O)O)cc(=O)c34)cccc2o1 [cromoglycate],"% of activated basophils (CCR3+/CD63+), mean",human basophils; 10 μM (table; text 10 mM),22.3%
COc1ccc2c(c1)c(CC(=O)O)c(C)n2C(=O)c1ccc(Cl)cc1 [indomethacin],"TNF-alpha, change vs PMA",[1],−60%
same,"TNF-alpha, mean",[1],113.266 pg/mL
same,"PGE2, change vs PMA",[2],−87% vs PMA
same,"PGE2, mean",[2],163.031 pg/mL
same,"PGE2, change vs Cd",[3],−54% vs Cd
same,"PGE2, mean",[3],3.874 pg/μg of protein
"O=c1c(O)c(-c2ccc(O)c(O)c2)oc2cc(O)cc(O)c12 [Quercetin, quercetin]","ROS, change vs H2O2",[4]; 10 μM,−92% vs H2O2
same,"ROS, mean",[4]; 10 μM,7787.00 fluorescence units
C[C@@H]1C[C@H]2[C@@H]3CCC4=CC(=O)C=C[C@]4(C)[C@@]3(F)[C@@H](O)C[C@]2(C)[C@@]1(O)C(=O)CO [dexamethasone],"TNF-alpha, change vs PMA",[1],−56% vs PMA
same,"TNF-alpha, mean",[1],126.112 pg/mL
same,"PGE2, change vs PMA",[2],−22% vs PMA
same,"PGE2, mean",[2],985.126 pg/mL
same,"IL8, change vs Ni",[5],−63% vs Ni
same,"IL8, mean",[5],1685 pg/ml/mg protein
Oc1ccc(-c2nc(-c3ccncc3)c(-c3ccc(F)cc3)[nH]2)cc1 [SB202190],"% of activated basophils (CCR3+/CD63+), mean",human basophils; 30 μM,30.4%
CC(C)(C)c1nc2c3cc[nH]c(=O)c3c3cc(F)ccc3c2[nH]1 [JAK inhibitor],CCL5 Relative expression (%),[6],101%
same,CCL27 Relative expression (%),[6],1436%
"O=C1O[C@H]([C@@H](O)CO)C(O)=C1O [Vitamin C, vitamin C]","ROS, change vs H2O2",[4]; 500 μM,−89% vs H2O2
same,"ROS, mean",[4]; 500 μM,10932.50 fluorescence units
